Results from PMC11440508, “Dually Labeled Neurotensin NTS1R Ligands for Probing Radiochemical and Fluorescence-Based Binding Assays” (Journal of Medicinal Chemistry, 2024).

Target: NTS1R (Homo sapiens, UniProt P30989)
Test: Radiochemical competition binding, suspended CHO-hNTS1R cells
Conditions: labeled probe [^3H]13 (1.8 nM), 90 min, 23 °C, read-out: RC cell suspension: pKi ± SEM (converted)

NTS1R, sequence (P30989 whole entry): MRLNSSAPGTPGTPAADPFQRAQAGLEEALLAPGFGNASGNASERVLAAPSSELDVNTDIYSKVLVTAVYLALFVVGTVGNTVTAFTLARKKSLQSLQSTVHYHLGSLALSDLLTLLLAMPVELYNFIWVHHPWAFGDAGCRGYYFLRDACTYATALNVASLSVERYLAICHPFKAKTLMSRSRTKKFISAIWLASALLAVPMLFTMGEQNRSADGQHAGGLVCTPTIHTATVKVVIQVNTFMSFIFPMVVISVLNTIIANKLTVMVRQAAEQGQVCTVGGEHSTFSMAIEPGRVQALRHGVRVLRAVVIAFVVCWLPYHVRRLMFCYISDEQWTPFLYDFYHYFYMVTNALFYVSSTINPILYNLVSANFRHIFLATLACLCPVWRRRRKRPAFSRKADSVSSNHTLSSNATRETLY

CCC(=O)NCCCCNC(=O)N=C(N)NCCC[C@H](NC(=O)[C@@H]1CCCN1C(=O)[C@@H](NC(=O)CCc1cn(CCCNC(=O)c2ccc(-c3c4ccc(=[N+](C)C)cc-4oc4cc(N(C)C)ccc34)c(C(=O)[O-])c2)nn1)C1CCNCC1)C(=O)N[C@@H](CCCNC(=N)N)C(=O)N1CCC[C@H]1C(=O)N[C@@H](Cc1ccc(O)cc1)C(=O)N[C@H](C(=O)N[C@@H](CC(C)C)C(=O)O)[C@@H](C)CC [Compound 13, N^α-(3-(1-N-((1-Carboxylato-2-(6-(dimethylamino)-3-(dimethyliminio)-3H-xanthen-9-yl)phen-5-yl)1-oxomethyl)aminoprop-3-yl-1H-1,2,3-triazol-4-yl)propanoyl)-2-(piperidin-4-yl)-Gly-Pro-N^ω-[(4-(N-propanoyl)aminobutyl)aminocarbonyl]Arg-Arg-Pro-Tyr-Ile-Leu Tris(hydrotrifluoroacetate)]
Ki: 4.68 nM
